Values joined by “and” are separate entries in the source; they are usually repeats but may differ in a detail not shown here. Equal entries are not always repeated.
System: skin
Test: Affymetrix microarray of skin, DBP-4 hr and analogs vs. untreated; gene selection by log-2 fold change, Wilcoxon, Kendall tau (Tables 8, 9)
Format: in vivo, mouse
Details: mouse, in vivo

CCCCOC(=O)c1ccccc1C(=O)OCCCC [DBP, dibutylphthalate]
DBP LogFold-Change Versus-Untreated: Csrp1: 0.81
DBP LogFold-Change Versus-Untreated: Cxcl1: 5.43
DBP LogFold-Change Versus-Untreated: Cxcl2: 4.56
DBP LogFold-Change Versus-Untreated: Cxcl16: 1.35
DBP LogFold-Change Versus-Untreated: Cyr61: 1.59
DBP LogFold-Change Versus-Untreated: Cytip: 1.19
DBP LogFold-Change Versus-Untreated: Deptor: 0.99
DBP LogFold-Change Versus-Untreated: Dusp6: 1.81
DBP LogFold-Change Versus-Untreated: Dusp7: 1.07
DBP LogFold-Change Versus-Untreated: Efhd2: 0.82
DBP LogFold-Change Versus-Untreated: Egr1: 1.50
DBP LogFold-Change Versus-Untreated: Eif1a: 0.97
DBP LogFold-Change Versus-Untreated: Epgn: 3.82
DBP LogFold-Change Versus-Untreated: Epha2: 0.82
DBP LogFold-Change Versus-Untreated: Errfi1: 0.89
DBP LogFold-Change Versus-Untreated: F2rl1: 0.78
DBP LogFold-Change Versus-Untreated: Fam43a: 0.81
DBP LogFold-Change Versus-Untreated: Fgfbp1: 1.01
DBP LogFold-Change Versus-Untreated: Fkbp5: 1.19
DBP LogFold-Change Versus-Untreated: Fosl1: 1.95
DBP LogFold-Change Versus-Untreated: Gjb2: 1.21
DBP LogFold-Change Versus-Untreated: Gpr35: 0.91
DBP LogFold-Change Versus-Untreated: Gpr65: 1.35
DBP LogFold-Change Versus-Untreated: Gyk: 1.00
DBP LogFold-Change Versus-Untreated: Gzmb: 1.30
DBP LogFold-Change Versus-Untreated: Havcr2: 1.89
DBP LogFold-Change Versus-Untreated: Hbegf: 1.76
DBP LogFold-Change Versus-Untreated: Hdc: 2.14
DBP LogFold-Change Versus-Untreated: Icam1: 2.66
DBP LogFold-Change Versus-Untreated: Ier2: 1.02
DBP LogFold-Change Versus-Untreated: Ier3: 1.85
DBP LogFold-Change Versus-Untreated: Il1b: 2.73
DBP LogFold-Change Versus-Untreated: Il1rl1: 0.91
DBP LogFold-Change Versus-Untreated: Il4ra: 0.81
DBP LogFold-Change Versus-Untreated: Il6: 3.05
DBP LogFold-Change Versus-Untreated: Il7r: 1.15
DBP LogFold-Change Versus-Untreated: Il10ra: 0.90
DBP LogFold-Change Versus-Untreated: Irs2: 0.94
DBP LogFold-Change Versus-Untreated: Jun: 1.06
DBP LogFold-Change Versus-Untreated: Junb: 1.39
DBP LogFold-Change Versus-Untreated: Kctd11: 0.80
DBP LogFold-Change Versus-Untreated: Klrb 1b: 1.25
DBP LogFold-Change Versus-Untreated: Krt6a: 1.53
DBP LogFold-Change Versus-Untreated: Krt35: 1.06
DBP LogFold-Change Versus-Untreated: LOC100504977: 3.10
DBP LogFold-Change Versus-Untreated: Map3k6: 1.03
DBP LogFold-Change Versus-Untreated: Map3k8: 1.01
DBP LogFold-Change Versus-Untreated: Mt1: 1.34
DBP LogFold-Change Versus-Untreated: Mt2: 1.11
DBP LogFold-Change Versus-Untreated: Nfil3: 1.60
DBP LogFold-Change Versus-Untreated: Nfkb2: 0.94
DBP LogFold-Change Versus-Untreated: Nr4a1: 2.09
DBP LogFold-Change Versus-Untreated: Nr4a2: 1.39
DBP LogFold-Change Versus-Untreated: Osmr: 0.95
DBP LogFold-Change Versus-Untreated: Otud7a: 1.25
DBP LogFold-Change Versus-Untreated: Pde4b: 1.44
DBP LogFold-Change Versus-Untreated: Plaur: 1.06
DBP LogFold-Change Versus-Untreated: Plk3: 1.00
DBP LogFold-Change Versus-Untreated: Pmaip1: 1.47
DBP LogFold-Change Versus-Untreated: Pprc1: 0.78
DBP LogFold-Change Versus-Untreated: Pqlc1: 0.87
DBP LogFold-Change Versus-Untreated: Prss22: 1.61
DBP LogFold-Change Versus-Untreated: Ptges: 1.22
DBP LogFold-Change Versus-Untreated: Pvr: 0.90
DBP LogFold-Change Versus-Untreated: Pyy: 2.62
DBP LogFold-Change Versus-Untreated: Rab20: 1.52
DBP LogFold-Change Versus-Untreated: Ramp3: 1.20
DBP LogFold-Change Versus-Untreated: Rgs1: 2.12
DBP LogFold-Change Versus-Untreated: Rnf19b: 1.15
DBP LogFold-Change Versus-Untreated: Serpine1: 2.68
DBP LogFold-Change Versus-Untreated: Slc7a5: 1.52
DBP LogFold-Change Versus-Untreated: Slc10a6: 1.33
DBP LogFold-Change Versus-Untreated: Slc25a25: 1.16
DBP LogFold-Change Versus-Untreated: Slc39a8: 1.52
DBP LogFold-Change Versus-Untreated: Slc39a14: 0.84
DBP LogFold-Change Versus-Untreated: Smox: 1.30 and 1.29 and 1.28
DBP LogFold-Change Versus-Untreated: Socs2: 1.26
DBP LogFold-Change Versus-Untreated: Socs3: 1.39
DBP LogFold-Change Versus-Untreated: Sprr1a: 1.43
DBP LogFold-Change Versus-Untreated: Stc1: 1.07
DBP LogFold-Change Versus-Untreated: Stk17b: 0.89
DBP LogFold-Change Versus-Untreated: Tnfaip2: 1.94
DBP LogFold-Change Versus-Untreated: Tnfaip3: 2.10
DBP LogFold-Change Versus-Untreated: Tnfaip6: 2.30
DBP LogFold-Change Versus-Untreated: Traf1: 1.07
DBP LogFold-Change Versus-Untreated: Uap1: 1.11
DBP LogFold-Change Versus-Untreated: Zbtb16: 1.04
DBP LogFold-Change Versus-Untreated: Zfp36: 1.53
DBP LogFold-Change Versus-Untreated: Zfp593: 1.01
Dbp NM_016974_at ≧2-Fold change: No
Deptor NM_001037937_at ≧2-Fold change: No
Dlgap4 NM_001042487_at ≧2-Fold change: No
Dlgap4 NM_001042488_at ≧2-Fold change: No
Dusp6 (NM_026268_at) ≧2-Fold change: Yes
Dusp7 (NM_153459_at) ≧2-Fold change: Yes
Ear5 NM_019398_at ≧2-Fold change: No
Epgn (NM_053087_at) ≧2-Fold change: Yes
Fam134b NM_001034851_at ≧2-Fold change: No
Gcdh NM_001044744_at ≧2-Fold change: No
Gm10228 XM_001474297_at ≧2-Fold change: No
Gm10228 XM_003086004_at ≧2-Fold change: No
Gm10229 XM_003086003_at ≧2-Fold change: No
Gsdmc NM_031378_at ≧2-Fold change: No
Gzmb (NM_013542_at) ≧2-Fold change: Yes
H19 NR_001592_at ≧2-Fold change: No
Havcr2 (NM_134250_at) ≧2-Fold change: Yes
Ier2 (NM_010499_at) ≧2-Fold change: Yes
Ier3 (NM_133662_at) ≧2-Fold change: Yes
Ifi202b (NM_011940_at) ≧2-Fold change: Yes
Il1f6 (NM_019450_at) ≧2-Fold change: Yes
Il1rl1 NM_001025602_at ≧2-Fold change: No
Il6 (NM_031168_at) ≧2-Fold change: Yes
Il20 (NM_021380_at) ≧2-Fold change: Yes
Inpp5a NM_001127363_at ≧2-Fold change: No
Inpp5d NM_001110192_at ≧2-Fold change: No
Inpp5d NM_001110193_at ≧2-Fold change: No
Jdp2 (NM_030887_at) ≧2-Fold change: Yes
Jun (NM_010591_at) ≧2-Fold change: Yes
Klhdc5 NM_001081237_at ≧2-Fold change: No
Klk6 (NM_011177_at) ≧2-Fold change: Yes
Klrb1b (NM_030599_at) ≧2-Fold change: Yes
Krt25 (NM_133730_at) ≧2-Fold change: Yes
Krt27 (NM_010666_at) ≧2-Fold change: Yes
Krt33a NM_027983_at ≧2-Fold change: No
Krt34 NM_027563_at ≧2-Fold change: No
Krt35 (NM_016880_at) ≧2-Fold change: Yes
Krt71 (NM_019956_at) ≧2-Fold change: Yes
Krtap1-5 NM_027157_at ≧2-Fold change: No
Krtap3-1 NM_023511_at ≧2-Fold change: No
Krtap3-3 NM_025524_at ≧2-Fold change: No
Krtap4-2 NM_026807_at ≧2-Fold change: No
Krtap4-16 (NM_001013823_at) ≧2-Fold change: No
Krtap5-2 NM_027844_at ≧2-Fold change: No
Krtap9-3 NM_029351_at ≧2-Fold change: No
Krtap13-1 NM_183189_at ≧2-Fold change: No
Krtap16-1 NM_130870_at ≧2-Fold change: No
Krtap16-5 NM_130857_at ≧2-Fold change: No
Krtap16-7 NM_028621_at ≧2-Fold change: No
Krtap16-8 NM_130856_at ≧2-Fold change: No
Krtap16-9 NM_130876_at ≧2-Fold change: No
Krtap16-10 NM_183296_at ≧2-Fold change: No
Krtap28-13 XM_896507_at ≧2-Fold change: No
Krtap28-13 XM_919110_at ≧2-Fold change: No
LOC100044068 (XM_001473873_at) ≧2-Fold change: Yes
LOC100503254 XM_003085741_at ≧2-Fold change: No
LOC100504977 (XM_003085794_at) ≧2-Fold change: Yes
Lmod2 NM_053098_at ≧2-Fold change: No
Lyz2 NM_017372_at ≧2-Fold change: No
Maff (NM_010755_at) ≧2-Fold change: Yes
Map3k6 (NM_016693_at) ≧2-Fold change: Yes
Mcoln2 (NM_026656_at) ≧2-Fold change: Yes
Mfhas1 NM_001081279_at ≧2-Fold change: No
Mfsd4 NM_001114662_at ≧2-Fold change: No
Mia1 NM_019394_at ≧2-Fold change: No
Mrpl44 NM_001081210_at ≧2-Fold change: No
Ms4a6d NM_026835_at ≧2-Fold change: No
Mt1 (NM_013602_at) ≧2-Fold change: Yes
Mylpf NM_016754_at ≧2-Fold change: No
Myoz2 NM_021503_at ≧2-Fold change: No
NA (AFFX-18SRNAMur/X00686_3_at) ≧2-Fold change: No
NA (AFFX-18SRNAMur/X00686_5_at) ≧2-Fold change: No
NA (AFFX-18SRNAMur/X00686_M_at) ≧2-Fold change: No
NA (AFFX-BioB-3_at) ≧2-Fold change: No
NA (AFFX-BioB-5_at) ≧2-Fold change: No
NA (AFFX-BioB-M_at) ≧2-Fold change: No
NA (AFFX-BioC-3_at) ≧2-Fold change: No
NA (AFFX-BioC-5_at) ≧2-Fold change: No
NA (AFFX-BioDn-3_at) ≧2-Fold change: No
NA (AFFX-BioDn-5_at) ≧2-Fold change: No
NA (AFFX-ThrX-5_at) ≧2-Fold change: No
Ncbp1 NM_001033201_at ≧2-Fold change: No
Nfil3 (NM_017373_at) ≧2-Fold change: Yes
Nfkbia (NM_010907_at) ≧2-Fold change: Yes
Nfkbiz (NM_030612_at) ≧2-Fold change: Yes
Nolc1 NM_001039351_at ≧2-Fold change: No
Nolc1 NM_001039352_at ≧2-Fold change: No
Nolc1 NM_001039353_at ≧2-Fold change: No
Nr4a2 (NM_013613_at) ≧2-Fold change: Yes
